For 7 molecules, T/C results are on record in PubChem BioAssay AID256 (DTP/NCI, 2004).

The experiment relates to CD2F1 mice, L1210 leukemia ip, survival T/C. In words: NCI In Vivo Anticancer Drug Screen. Data for tumor model L1210 Leukemia (intraperitoneal) in CD2F1 (CDF1) mice. The note with it: higher = longer survival. The essentials: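 Read-out first: treated-group measurement over vehicle-control measurement, expressed as a ratio. Animals bore a transplanted tumor line and were dosed with compound or vehicle.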

The mark [1] stands for this setting: endpoint: mean survival time, dose: 100.0 mg/kg/injection, schedule: Q04DX003 (ip), vehicle: saline with Tween-80.
[2] abbreviates: endpoint: mean survival time, dose: 200.0 mg/kg/injection, schedule: Q04DX003 (ip), vehicle: saline with Tween-80.
The mark [3] stands for this setting: endpoint: mean survival time, dose: 400.0 mg/kg/injection, schedule: Q04DX003 (ip), vehicle: saline with Tween-80.

Structures are written as SMILES. Toxic doses and inconclusive results are not listed.

For `C[n+]1ccc(Nc2ccc(NC(=O)c3ccc(Nc4cc[n+](C)c5ccc(N)cc45)cc3)cc2)cc1`, the T/C (endpoint: mean survival time, dose: 2.0 mg/kg/injection, schedule: Q01DX009 (ip), vehicle: water) was 313 % of control; the T/C (endpoint: mean survival time, dose: 4.0 mg/kg/injection, schedule: Q01DX009 (ip), vehicle: water) is 341 % of control; the T/C (endpoint: median survival time, dose: 0.25 mg/kg/injection, schedule: Q03HX008 (ip), vehicle: water) was 100 % of control; the T/C (endpoint: median survival time, dose: 0.25 mg/kg/injection, schedule: Q03HX016 (ip), vehicle: water) was 102 % of control; the T/C (endpoint: median survival time, dose: 0.25 mg/kg/injection, schedule: Q03HX024 (ip), vehicle: water) is 110 % of control; the T/C (endpoint: median survival time, dose: 0.5 mg/kg/injection, schedule: Q01DX005 (ip), vehicle: water) was 120 % of control. Also, the T/C reads like this: (endpoint: median survival time, dose: 0.5 mg/kg/injection, schedule: Q01DX009 (ip), vehicle: water) 123 % of control; (endpoint: median survival time, dose: 0.5 mg/kg/injection, schedule: Q01DX009 (sc), vehicle: water) 96 % of control; (endpoint: median survival time, dose: 0.5 mg/kg/injection, schedule: Q03HX008 (ip), vehicle: water) 113 % of control; (endpoint: median survival time, dose: 0.5 mg/kg/injection, schedule: Q03HX016 (ip), vehicle: water) 109 % of control; (endpoint: median survival time, dose: 1.0 mg/kg/injection, schedule: Q01DX009 (sc), vehicle: water) 101 % of control; (endpoint: median survival time, dose: 1.0 mg/kg/injection, schedule: Q03HX016 (ip), vehicle: water) 158 % of control. Also, the T/C is, setting by setting: (endpoint: median survival time, dose: 1.0 mg/kg/injection, schedule: Q03HX024 (ip), vehicle: water) 180 % of control; (endpoint: median survival time, dose: 2.0 mg/kg/injection, schedule: Q01DX001 (ip), vehicle: water) 103 % of control; (endpoint: median survival time, dose: 2.0 mg/kg/injection, schedule: Q01DX001 (sc), vehicle: water) 97 % of control; (endpoint: median survival time, dose: 2.0 mg/kg/injection, schedule: Q01DX005 (ip), vehicle: water) 164 % of control; (endpoint: median survival time, dose: 2.0 mg/kg/injection, schedule: Q01DX009 (ip), vehicle: water) 274 % of control; (endpoint: median survival time, dose: 2.0 mg/kg/injection, schedule: Q01DX009 (oral), vehicle: water) 100 % of control. Moreover, the T/C (endpoint: median survival time, dose: 2.0 mg/kg/injection, schedule: Q01DX009 (sc), vehicle: water) was 157 % of control; the T/C (endpoint: median survival time, dose: 2.0 mg/kg/injection, schedule: Q03HX008 (ip), vehicle: water) was 157 % of control; the T/C (endpoint: median survival time, dose: 2.0 mg/kg/injection, schedule: Q03HX016 (ip), vehicle: water) is 185 % of control; the T/C (endpoint: median survival time, dose: 2.0 mg/kg/injection, schedule: Q03HX024 (ip), vehicle: water) was 256 % of control; the T/C (endpoint: median survival time, dose: 2.0 mg/kg/injection, schedule: Q04DX003 (ip), vehicle: water) was 113 % of control; the T/C (endpoint: median survival time, dose: 4.0 mg/kg/injection, schedule: Q01DX001 (ip), vehicle: water) was 114 % of control. The T/C reads like this: (endpoint: median survival time, dose: 4.0 mg/kg/injection, schedule: Q01DX001 (sc), vehicle: water) 100 % of control; (endpoint: median survival time, dose: 4.0 mg/kg/injection, schedule: Q01DX005 (ip), vehicle: water) 252 % of control; (endpoint: median survival time, dose: 4.0 mg/kg/injection, schedule: Q01DX009 (ip), vehicle: water) 373 % of control; (endpoint: median survival time, dose: 4.0 mg/kg/injection, schedule: Q01DX009 (oral), vehicle: water) 97 % of control; (endpoint: median survival time, dose: 4.0 mg/kg/injection, schedule: Q01DX009 (sc), vehicle: water) 241 % of control; (endpoint: median survival time, dose: 4.0 mg/kg/injection, schedule: Q03HX008 (ip), vehicle: water) 175 % of control. The T/C is 212 % of control (endpoint: median survival time, dose: 4.0 mg/kg/injection, schedule: Q03HX016 (ip), vehicle: water); 321 % of control (endpoint: median survival time, dose: 4.0 mg/kg/injection, schedule: Q03HX024 (ip), vehicle: water); 164 % of control (endpoint: median survival time, dose: 4.0 mg/kg/injection, schedule: Q08DX002 (ip), vehicle: water); 92 % of control (endpoint: median survival time, dose: 8.0 mg/kg/injection, schedule: Q01DX001 (oral), vehicle: water); 105 % of control (endpoint: median survival time, dose: 8.0 mg/kg/injection, schedule: Q01DX001 (sc), vehicle: water); 332 % of control (endpoint: median survival time, dose: 8.0 mg/kg/injection, schedule: Q01DX009 (ip), vehicle: water). Also, the T/C (endpoint: median survival time, dose: 8.0 mg/kg/injection, schedule: Q01DX009 (oral), vehicle: water) is 98 % of control; the T/C (endpoint: median survival time, dose: 8.0 mg/kg/injection, schedule: Q01DX009 (sc), vehicle: water) is 307 % of control; the T/C (endpoint: median survival time, dose: 8.0 mg/kg/injection, schedule: Q04DX003 (ip), vehicle: water) is 157 % of control; the T/C (endpoint: median survival time, dose: 16.0 mg/kg/injection, schedule: Q01DX001 (oral), vehicle: water) was 98 % of control; the T/C (endpoint: median survival time, dose: 16.0 mg/kg/injection, schedule: Q01DX001 (sc), vehicle: water) is 121 % of control; the T/C (endpoint: median survival time, dose: 16.0 mg/kg/injection, schedule: Q01DX009 (oral), vehicle: water) was 100 % of control. In addition, the T/C by setting is: (endpoint: median survival time, dose: 16.0 mg/kg/injection, schedule: Q01DX009 (sc), vehicle: water) 120 % of control; (endpoint: median survival time, dose: 32.0 mg/kg/injection, schedule: Q01DX001 (oral), vehicle: water) 96 % of control; (endpoint: median survival time, dose: 32.0 mg/kg/injection, schedule: Q01DX009 (oral), vehicle: water) 98 % of control; (endpoint: median survival time, dose: 64.0 mg/kg/injection, schedule: Q01DX001 (oral), vehicle: water) 100 % of control; (endpoint: median survival time, dose: 64.0 mg/kg/injection, schedule: Q01DX001 (sc), vehicle: water) 208 % of control; (endpoint: median survival time, dose: 64.0 mg/kg/injection, schedule: Q01DX009 (oral), vehicle: water) 100 % of control. Moreover, the T/C was 102 % of control (endpoint: median survival time, dose: 128.0 mg/kg/injection, schedule: Q01DX001 (oral), vehicle: water) and 92 % of control (endpoint: median survival time, dose: 256.0 mg/kg/injection, schedule: Q01DX001 (oral), vehicle: water).

`COc1cc(NCCCNCC(C)(C)C)c2ncccc2c1`: the T/C by setting is: (endpoint: mean survival time, dose: 1.25 mg/kg/injection, schedule: Q01DX009 (ip), vehicle: Klucel (hydroxypropylcellulose) (HPC)) 98 % of control; (endpoint: mean survival time, dose: 2.5 mg/kg/injection, schedule: Q01DX009 (ip), vehicle: Klucel (hydroxypropylcellulose) (HPC)) 105 % of control; (endpoint: mean survival time, dose: 5.0 mg/kg/injection, schedule: Q01DX009 (ip), vehicle: Klucel (hydroxypropylcellulose) (HPC)) 100 % of control; (endpoint: mean survival time, dose: 10.0 mg/kg/injection, schedule: Q01DX009 (ip), vehicle: Klucel (hydroxypropylcellulose) (HPC)) 105 % of control.

`O=C1CCCC1=P(c1ccccc1)(c1ccccc1)c1ccccc1`: the T/C reads like this: (endpoint: mean survival time, dose: 100.0 mg/kg/injection, schedule: Q04DX003 (ip), vehicle: other) 99 % of control; (endpoint: mean survival time, dose: 200.0 mg/kg/injection, schedule: Q04DX003 (ip), vehicle: other) 90 % of control.

Turning to `NC1=NC(CCc2ccccc2)N(c2ccc3ccccc3c2)C(N)=N1` (stereo not drawn), the T/C by setting is: (endpoint: mean survival time, dose: 4.7 mg/kg/injection, schedule: Q04DX003 (ip), vehicle: saline) 104 % of control; (endpoint: mean survival time, dose: 9.4 mg/kg/injection, schedule: Q04DX003 (ip), vehicle: saline) 100 % of control; (endpoint: mean survival time, dose: 18.8 mg/kg/injection, schedule: Q04DX003 (ip), vehicle: saline) 100 % of control.

On to `O=C(/C=C/c1ccncc1)c1ccccc1`, for which the T/C was 92 % of control (endpoint: mean survival time, dose: 100.0 mg/kg/injection, schedule: Q01DX009 (ip), vehicle: saline with Tween-80); 89 % of control under setting [1]; 89 % of control (endpoint: mean survival time, dose: 200.0 mg/kg/injection, schedule: Q01DX009 (ip), vehicle: saline with Tween-80); 89 % of control under setting [2]; 91 % of control (endpoint: mean survival time, dose: 400.0 mg/kg/injection, schedule: Q01DX009 (ip), vehicle: saline with Tween-80); 95 % of control under setting [3].

Turning to `COC1OC(Nc2nc(SC)[nH]c(=O)c2C(C)=O)C(O)C(O)C1O` (stereo not drawn), the T/C by setting is: (endpoint: median survival time, dose: 12.5 mg/kg/injection, schedule: Q01DX005 (ip), vehicle: saline with Tween-80) 98 % of control; (endpoint: median survival time, dose: 25.0 mg/kg/injection, schedule: Q01DX005 (ip), vehicle: saline with Tween-80) 97 % of control; (endpoint: median survival time, dose: 50.0 mg/kg/injection, schedule: Q01DX005 (ip), vehicle: saline with Tween-80) 94 % of control; (endpoint: median survival time, dose: 100.0 mg/kg/injection, schedule: Q01DX005 (ip), vehicle: saline with Tween-80) 95 % of control; (endpoint: median survival time, dose: 200.0 mg/kg/injection, schedule: Q01DX005 (ip), vehicle: saline with Tween-80) 97 % of control.

For the molecule `Cc1ccc(S(=O)C(c2ccccc2)C(c2ccccc2)C(C)O)cc1` (stereo not drawn), the T/C runs as follows: under setting [1], 90 % of control; under setting [2], 94 % of control; under setting [3], 90 % of control.
